Measured values: the NIST ThermoML archive (doi:10.1021/je060271a)
Where “and” joins values, the source holds several entries; their conditions need not be identical. Equal values may be shown once. Numbers after ± are expanded uncertainties.

Settings: Liquid, Vibrating tube method

CCCCC(=O)OCC(COC(=O)CCCC)(COC(=O)CCCC)COC(=O)CCCC [pentaerythritol tetrapentanoate]
Settings | mass density
283.14 K, 1387.6 kPa | 1027.8 ± 1.2 kg/m3
283.14 K, 1404.2 kPa | 1027.9 ± 1.2 kg/m3
283.14 K, 1537.6 kPa | 1028 ± 1.2 kg/m3
283.14 K, 1581.5 kPa | 1028 ± 1.2 kg/m3
283.14 K, 1602.2 kPa | 1028 ± 1.2 kg/m3
283.14 K, 7137 kPa | 1031.3 ± 1.2 kg/m3
283.14 K, 7155.5 kPa | 1031.2 ± 1.2 kg/m3
283.14 K, 7173.8 kPa | 1031.2 ± 1.2 kg/m3
283.14 K, 7196.4 kPa | 1031.2 ± 1.2 kg/m3
283.14 K, 7215.6 kPa | 1031.3 ± 1.2 kg/m3
283.14 K, 7545.3 kPa | 1031.5 ± 1.2 kg/m3
283.14 K, 7570.8 kPa | 1031.5 ± 1.2 kg/m3
283.14 K, 7613.2 kPa | 1031.4 ± 1.2 kg/m3
283.14 K, 7932.2 kPa | 1031.7 ± 1.2 kg/m3
283.14 K, 7959.6 kPa | 1031.7 ± 1.2 kg/m3
283.14 K, 7982.3 kPa | 1031.7 ± 1.2 kg/m3
283.14 K, 8033 kPa | 1031.8 ± 1.2 kg/m3
283.14 K, 8056.3 kPa | 1031.7 ± 1.2 kg/m3
283.14 K, 8103.7 kPa | 1031.7 ± 1.2 kg/m3
283.14 K, 8185.7 kPa | 1031.9 ± 1.2 kg/m3
283.14 K, 9062.7 kPa | 1032.4 ± 1.2 kg/m3
283.14 K, 9128.2 kPa | 1032.3 ± 1.2 kg/m3
283.14 K, 9352.3 kPa | 1032.5 ± 1.2 kg/m3
283.14 K, 9390.6 kPa | 1032.6 ± 1.2 kg/m3
283.14 K, 9422.3 kPa | 1032.5 ± 1.2 kg/m3
283.14 K, 9460.6 kPa | 1032.5 ± 1.2 kg/m3
283.14 K, 9493.3 kPa | 1032.5 ± 1.2 kg/m3
283.14 K, 9525.9 kPa | 1032.5 ± 1.2 kg/m3
283.14 K, 9558.8 kPa | 1032.6 ± 1.2 kg/m3
283.14 K, 10081 kPa | 1032.9 ± 1.2 kg/m3
283.14 K, 10162 kPa | 1032.9 ± 1.2 kg/m3
283.14 K, 11953 kPa | 1034 ± 1.2 kg/m3
283.15 K, 105.8 kPa | 1027.1 ± 1.2 kg/m3
283.15 K, 106 kPa | 1027.1 ± 1.2 kg/m3 and 1027.2 ± 1.2 kg/m3
283.15 K, 106.2 kPa | 1027.2 ± 1.2 kg/m3 and 1027.1 ± 1.2 kg/m3 and 1027 ± 1.2 kg/m3
283.15 K, 106.3 kPa | 1027.2 ± 1.2 kg/m3
283.15 K, 106.7 kPa | 1027.2 ± 1.2 kg/m3
283.15 K, 107.6 kPa | 1027.1 ± 1.2 kg/m3
283.15 K, 108.1 kPa | 1027.1 ± 1.2 kg/m3
283.15 K, 109.5 kPa | 1027 ± 1.2 kg/m3
283.15 K, 111.9 kPa | 1027.2 ± 1.2 kg/m3
283.15 K, 117.3 kPa | 1027.1 ± 1.2 kg/m3
283.15 K, 124.3 kPa | 1027.1 ± 1.2 kg/m3
283.15 K, 130.2 kPa | 1027.2 ± 1.2 kg/m3
283.15 K, 135 kPa | 1027.1 ± 1.2 kg/m3
283.15 K, 140.8 kPa | 1027.1 ± 1.2 kg/m3
283.15 K, 147.2 kPa | 1027.1 ± 1.2 kg/m3
283.15 K, 154.9 kPa | 1027.1 ± 1.2 kg/m3
283.15 K, 163.9 kPa | 1027.1 ± 1.2 kg/m3
283.15 K, 178 kPa | 1027.2 ± 1.2 kg/m3
283.15 K, 192.4 kPa | 1027.1 ± 1.2 kg/m3
283.15 K, 213.6 kPa | 1027.1 ± 1.2 kg/m3
283.15 K, 233.4 kPa | 1027.1 ± 1.2 kg/m3
283.15 K, 247.7 kPa | 1027.2 ± 1.2 kg/m3
283.15 K, 264 kPa | 1027.2 ± 1.2 kg/m3
283.15 K, 279.7 kPa | 1027.1 ± 1.2 kg/m3
283.15 K, 296.5 kPa | 1027.1 ± 1.2 kg/m3
283.15 K, 313.2 kPa | 1027.2 ± 1.2 kg/m3
283.15 K, 332 kPa | 1027.2 ± 1.2 kg/m3
283.15 K, 349 kPa | 1027.3 ± 1.2 kg/m3
283.15 K, 368.1 kPa | 1027.2 ± 1.2 kg/m3
283.15 K, 391.4 kPa | 1027.3 ± 1.2 kg/m3
283.15 K, 406.5 kPa | 1027.2 ± 1.2 kg/m3
283.15 K, 423.1 kPa | 1027.4 ± 1.2 kg/m3
283.15 K, 437.7 kPa | 1027.3 ± 1.2 kg/m3
283.15 K, 452.6 kPa | 1027.3 ± 1.2 kg/m3
283.15 K, 469.3 kPa | 1027.3 ± 1.2 kg/m3
283.15 K, 482.3 kPa | 1027.4 ± 1.2 kg/m3
283.15 K, 495.9 kPa | 1027.3 ± 1.2 kg/m3
283.15 K, 512.7 kPa | 1027.3 ± 1.2 kg/m3
283.15 K, 528.4 kPa | 1027.4 ± 1.2 kg/m3
283.15 K, 544.4 kPa | 1027.4 ± 1.2 kg/m3
283.15 K, 563 kPa | 1027.2 ± 1.2 kg/m3
283.15 K, 579.3 kPa | 1027.3 ± 1.2 kg/m3
283.15 K, 596.9 kPa | 1027.5 ± 1.2 kg/m3
283.15 K, 618.9 kPa | 1027.3 ± 1.2 kg/m3
283.15 K, 638.7 kPa | 1027.4 ± 1.2 kg/m3
283.15 K, 659.6 kPa | 1027.5 ± 1.2 kg/m3
283.15 K, 682 kPa | 1027.5 ± 1.2 kg/m3
283.15 K, 710.3 kPa | 1027.4 ± 1.2 kg/m3
283.15 K, 735.2 kPa | 1027.6 ± 1.2 kg/m3
283.15 K, 767.3 kPa | 1027.5 ± 1.2 kg/m3
283.15 K, 795.3 kPa | 1027.5 ± 1.2 kg/m3
283.15 K, 819.4 kPa | 1027.5 ± 1.2 kg/m3
283.15 K, 839.6 kPa | 1027.6 ± 1.2 kg/m3
283.15 K, 865.5 kPa | 1027.6 ± 1.2 kg/m3
283.15 K, 888.6 kPa | 1027.5 ± 1.2 kg/m3
283.15 K, 912.5 kPa | 1027.6 ± 1.2 kg/m3
283.15 K, 938.4 kPa | 1027.7 ± 1.2 kg/m3
283.15 K, 969.9 kPa | 1027.6 ± 1.2 kg/m3
283.15 K, 997.3 kPa | 1027.6 ± 1.2 kg/m3
283.15 K, 1027 kPa | 1027.7 ± 1.2 kg/m3
283.15 K, 1064.4 kPa | 1027.7 ± 1.2 kg/m3
283.15 K, 1096.7 kPa | 1027.7 ± 1.2 kg/m3
283.15 K, 1131.3 kPa | 1027.7 ± 1.2 kg/m3
283.15 K, 1175 kPa | 1027.7 ± 1.2 kg/m3
283.15 K, 1212.2 kPa | 1027.8 ± 1.2 kg/m3
283.15 K, 1243.1 kPa | 1027.7 ± 1.2 kg/m3
283.15 K, 1258.2 kPa | 1027.8 ± 1.2 kg/m3
283.15 K, 1275 kPa | 1027.8 ± 1.2 kg/m3
283.15 K, 1289.5 kPa | 1027.7 ± 1.2 kg/m3
283.15 K, 1304.2 kPa | 1027.8 ± 1.2 kg/m3
283.15 K, 1321.8 kPa | 1027.8 ± 1.2 kg/m3
283.15 K, 1336.7 kPa | 1027.8 ± 1.2 kg/m3
283.15 K, 1351.8 kPa | 1027.9 ± 1.2 kg/m3
283.15 K, 1371.1 kPa | 1027.9 ± 1.2 kg/m3
283.15 K, 1421.6 kPa | 1027.8 ± 1.2 kg/m3
283.15 K, 1442.1 kPa | 1027.9 ± 1.2 kg/m3
283.15 K, 1459.8 kPa | 1027.9 ± 1.2 kg/m3
283.15 K, 1477.5 kPa | 1027.9 ± 1.2 kg/m3
283.15 K, 1499.7 kPa | 1027.9 ± 1.2 kg/m3
283.15 K, 1518.7 kPa | 1027.9 ± 1.2 kg/m3
283.15 K, 1561.4 kPa | 1027.9 ± 1.2 kg/m3
283.15 K, 1627.3 kPa | 1028.1 ± 1.2 kg/m3
283.15 K, 1648.9 kPa | 1028.1 ± 1.2 kg/m3
283.15 K, 1671.6 kPa | 1028 ± 1.2 kg/m3
283.15 K, 1695.7 kPa | 1028 ± 1.2 kg/m3
283.15 K, 1719.2 kPa | 1028.1 ± 1.2 kg/m3
283.15 K, 1748.3 kPa | 1028.1 ± 1.2 kg/m3
283.15 K, 1772.8 kPa | 1028 ± 1.2 kg/m3
283.15 K, 1798.3 kPa | 1028 ± 1.2 kg/m3
283.15 K, 1824.2 kPa | 1028.1 ± 1.2 kg/m3
283.15 K, 1856.3 kPa | 1028.2 ± 1.2 kg/m3
283.15 K, 1883 kPa | 1028.2 ± 1.2 kg/m3
283.15 K, 1911.7 kPa | 1028.1 ± 1.2 kg/m3
283.15 K, 1940.6 kPa | 1028.2 ± 1.2 kg/m3
283.15 K, 1976.1 kPa | 1028.2 ± 1.2 kg/m3
283.15 K, 2006.6 kPa | 1028.2 ± 1.2 kg/m3
283.15 K, 2039.2 kPa | 1028.3 ± 1.2 kg/m3
283.15 K, 2073.9 kPa | 1028.3 ± 1.2 kg/m3
283.15 K, 2114 kPa | 1028.3 ± 1.2 kg/m3
283.15 K, 2165.9 kPa | 1028.3 ± 1.2 kg/m3
283.15 K, 2243 kPa | 1028.4 ± 1.2 kg/m3
283.15 K, 2290.5 kPa | 1028.4 ± 1.2 kg/m3
283.15 K, 2304.2 kPa | 1028.4 ± 1.2 kg/m3
283.15 K, 2315.5 kPa | 1028.5 ± 1.2 kg/m3
283.15 K, 2325.4 kPa | 1028.5 ± 1.2 kg/m3
283.15 K, 2335.1 kPa | 1028.5 ± 1.2 kg/m3
283.15 K, 2345 kPa | 1028.4 ± 1.2 kg/m3
283.15 K, 2356.8 kPa | 1028.4 ± 1.2 kg/m3
283.15 K, 2367 kPa | 1028.5 ± 1.2 kg/m3
283.15 K, 2376.9 kPa | 1028.5 ± 1.2 kg/m3
283.15 K, 2387.1 kPa | 1028.5 ± 1.2 kg/m3
283.15 K, 2399.6 kPa | 1028.4 ± 1.2 kg/m3
283.15 K, 2409.9 kPa | 1028.5 ± 1.2 kg/m3
283.15 K, 2419.9 kPa | 1028.6 ± 1.2 kg/m3
283.15 K, 2432.6 kPa | 1028.5 ± 1.2 kg/m3
283.15 K, 2443.2 kPa | 1028.4 ± 1.2 kg/m3
283.15 K, 2453.4 kPa | 1028.5 ± 1.2 kg/m3
283.15 K, 2464 kPa | 1028.6 ± 1.2 kg/m3
283.15 K, 2476.8 kPa | 1028.5 ± 1.2 kg/m3
283.15 K, 2487.6 kPa | 1028.7 ± 1.2 kg/m3
283.15 K, 2498.3 kPa | 1028.4 ± 1.2 kg/m3
283.15 K, 2511.9 kPa | 1028.5 ± 1.2 kg/m3
283.15 K, 2523 kPa | 1028.4 ± 1.2 kg/m3
283.15 K, 2534.1 kPa | 1028.6 ± 1.2 kg/m3
283.15 K, 2545.9 kPa | 1028.6 ± 1.2 kg/m3
283.15 K, 2559.4 kPa | 1028.6 ± 1.2 kg/m3
283.15 K, 2570.3 kPa | 1028.6 ± 1.2 kg/m3
283.15 K, 2581.9 kPa | 1028.6 ± 1.2 kg/m3
